According to patent US11180500B2, “Derivatives of relebactam and uses thereof” (ARIXA PHARMACEUTICALS, INC., priority 2018, dated 2021):

Test: Oral bioavailability in Beagle dogs (plasma concentration of relebactam)
Format: in vivo
Conditions: male Beagle dogs, IV bolus, mean
Protocol: The oral bioavailability of certain relebactam prodrugs provided by the present disclosure in Beagle dogs was evaluated.
Dosing formulations are prepared on the day of dosing. Intravenous formulations are prepared under aseptic conditions, sterile filtered, and brought to room temperature prior to dosing. The intravenous formulation included relebactam at a final concentration of 2.8 mg/mL in PBS at pH 7.5.
The formulations were administered to male Beagle dogs weighing about 10 kg. The animals were maintained in accordance with the Guide for the Care and Use of Laboratory Animals, National Research Council, The National Academies Press, Washington, DC, 2011.
The dogs received either an IV bolus dose of 9.9 mg/kg, or a peroral dose of 22 mg/kg (Compound 87) or 20.0 mg/kg (Compound 88). […]
The plasma concentration of relebactam was measured at intervals following administration. […] The relebactam concentration was determined using LC/MS/MS.
The area under the concentration vs. time curves (AUC) was calculated using the linear/log trapezoidal method with linear interpolation. The percent oral bioavailability (% F) of relebactam was determined by comparing the AUC following oral administration with the AUC following IV administration on a dose normalized basis.

Question: For `O=C(NC1CCNCC1)[C@@H]1CC[C@@H]2CN1C(=O)N2OS(=O)(=O)O` [relebactam], which AUC(0-inf) (dog, nominal dose 10.0 mg/kg (administered 9.88 mg/kg)) is on record?
Answer: 29400 ng·h/mL

Question: And the AUC0-inf/D (relebactam-equivalent dose 9.88 mg/kg)?
Answer: 2974
